Experimental data published in patent US10519134B2, “Pyrazole compounds and methods of making and using same” (Lundbeck La Jolla Research Center, Inc., priority 2015, dated 2019).

Key:
MAGL = target: T1, MAGL (Mus musculus, UniProt O35678); assay: In vitro competitive activity-based protein profiling (mouse), MAGL gel band; assay type: biochemical; conditions: for inhibition at 1 µM: read-out: MAGL % inh. 1 μM; for IC50: mouse
T1 construct: Proteomes (mouse brain membrane fraction or cell lysates); from tissue; host or cells: mouse brain membrane fraction (or cell lysates)
T1 sequence (O35678 1-303): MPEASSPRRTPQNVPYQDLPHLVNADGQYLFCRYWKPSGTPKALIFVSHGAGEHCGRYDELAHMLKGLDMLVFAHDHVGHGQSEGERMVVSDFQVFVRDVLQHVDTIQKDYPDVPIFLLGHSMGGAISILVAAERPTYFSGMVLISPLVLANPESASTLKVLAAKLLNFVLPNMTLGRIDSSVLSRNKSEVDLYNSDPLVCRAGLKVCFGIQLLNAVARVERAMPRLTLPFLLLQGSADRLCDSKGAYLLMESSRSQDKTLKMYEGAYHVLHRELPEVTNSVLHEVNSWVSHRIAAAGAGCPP
Method in brief: (§1)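 Mouse brain membrane proteome or cell lysate (1.0 mg/mL total protein) was preincubated with varying inhibitor concentrations for 30 min at 37 °C, then labelled for 30 min at 37 °C with FP-Rh or HT-01 (50 μM stock in DMSO). Activity was read as fluorescent band intensity after SDS-PAGE.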

FAAH = target: T2, FAAH (Mus musculus, UniProt O08914); assay: In vitro competitive activity-based protein profiling (mouse), FAAH gel band; assay type: biochemical; conditions: for inhibition at 1 µM: read-out: FAAH % inh. 1 μM; for IC50: mouse
T2 construct: Proteomes (mouse brain membrane fraction or cell lysates); from tissue; host or cells: mouse brain membrane fraction (or cell lysates)
T2 sequence (O08914 1-579): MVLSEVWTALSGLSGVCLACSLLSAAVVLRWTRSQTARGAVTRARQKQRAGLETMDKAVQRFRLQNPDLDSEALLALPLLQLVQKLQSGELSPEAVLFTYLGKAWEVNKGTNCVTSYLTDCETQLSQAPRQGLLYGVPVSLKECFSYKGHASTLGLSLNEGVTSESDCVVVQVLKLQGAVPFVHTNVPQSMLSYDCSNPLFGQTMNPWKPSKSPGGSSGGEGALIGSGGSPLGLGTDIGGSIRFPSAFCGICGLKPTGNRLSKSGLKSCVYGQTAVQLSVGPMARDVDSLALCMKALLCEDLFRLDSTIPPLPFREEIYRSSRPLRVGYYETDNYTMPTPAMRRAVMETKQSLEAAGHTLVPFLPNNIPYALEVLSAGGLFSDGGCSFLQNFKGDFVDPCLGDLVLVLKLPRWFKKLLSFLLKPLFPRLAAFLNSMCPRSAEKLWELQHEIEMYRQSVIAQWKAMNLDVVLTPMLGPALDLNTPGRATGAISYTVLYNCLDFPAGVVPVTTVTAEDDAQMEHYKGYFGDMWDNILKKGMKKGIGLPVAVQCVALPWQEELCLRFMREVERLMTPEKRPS
Method in brief: as §1

| SMILES | inhibition at 1 µM (MAGL) [%] | inhibition at 1 µM (FAAH) [%] | IC50 (MAGL) [µM] | IC50 (FAAH) [µM] |
| --- | --- | --- | --- | --- |
| CC(=O)Nc1ccn(C(=O)N2CCC3(CCCN3Cc3ccc4[nH]cnc4c3)CC2)n1 [Example 253, N-(1-(1-((1H-benzo[d]imidazol-5-yl)methyl)-1,8-diazaspiro[4.5]decane-8-carbonyl)-1H-pyrazol-3-yl)acetamide] | 50 to 75 | 0 to 25 |  |  |
| CS(=O)(=O)Nc1ccn(C(=O)N2CCN(Cc3cc(N4CCN(S(C)(=O)=O)CC4)cc(C(F)(F)F)c3)CC2)n1 [Example 254, N-(1-(4-(3-(4-(methylsulfonyl)piperazin-1-yl)-5-(trifluoromethyl)benzyl)piperazine-1-carbonyl)-1H-pyrazol-3-yl) methanesulfonamide] | 25 to 50 | 0 to 25 |  |  |
| CS(=O)(=O)Nc1ccn(C(=O)N2CCC3(CCCN3Cc3ccc(C(F)(F)F)cc3N3CCN(S(C)(=O)=O)CC3)CC2)n1 [Example 255, N-(1-(1-(2-(4-(methylsulfonyl)piperazin-1-yl)-4-(trifluoromethyl)benzyl)-1,8-diazaspiro[4.5]decane-8-carbonyl)-1H-pyrazol-3-yl) methanesulfonamide] | 0 to 25 | 0 to 25 |  |  |
| CS(=O)(=O)Nc1ccn(C(=O)N2CCN(Cc3ccc(Cl)cc3N3CC4CCC(C3)O4)CC2)n1 [Example 256, N-(1-(4-(2-(8-oxa-3-azabicyclo[3.2.1]octan-3-yl)-4-chlorobenzyl)piperazine-1-carbonyl)-1H-pyrazol-3-yl) methanesulfonamide] | ≥ 75 | 0 to 25 | ≤ 0.1 | 1 to 10 |
| CS(=O)(=O)Nc1ccn(C(=O)N2CCN(Cc3cc(N4CCOCC4)ccc3Cl)CC2)n1 [Example 258, N-(1-(4-(2-chloro-5-morpholinobenzyl)piperazine-1-carbonyl)-1H-pyrazol-3-yl) methanesulfonamide] | 0 to 25 | 0 to 25 |  |  |
| CS(=O)(=O)Nc1ccn(C(=O)N2CCN(Cc3ccc(C(F)(F)F)cc3-c3nnn[nH]3)CC2)n1 [Example 259, N-(1-(4-(2-(1H-tetrazol-5-yl)-4-(trifluoromethyl)benzyl)piperazine-1-carbonyl)-1H-pyrazol-3-yl) methanesulfonamide] | 50 to 75 | 0 to 25 |  |  |
| CS(=O)(=O)Nc1ccn(C(=O)N2CCN(Cc3ccc(Cl)c(-c4nnco4)c3)CC2)n1 [Example 260, N-(1-(4-(4-chloro-3-(1,3,4-oxadiazol-2-yl)benzyl)piperazine-1-carbonyl)-1H-pyrazol-3-yl) methanesulfonamide] | ≥ 75 | 0 to 25 |  |  |
| CS(=O)(=O)Nc1ccn(C(=O)N2CCN(Cc3ccc(Cl)c(-c4ncon4)c3)CC2)n1 [Example 261, N-(1-(4-(4-chloro-3-(1,2,4-oxadiazol-3-yl)benzyl)piperazine-1-carbonyl)-1H-pyrazol-3-yl) methanesulfonamide] | ≥ 75 | 0 to 25 |  |  |
| CC(C)C(=O)Nc1ccn(C(=O)N2CCN(Cc3ccc(C(F)(F)F)cc3N3CCCC3)CC2)n1 [Example 263, N-(1-(4-(2-(pyrrolidin-1-yl)-4-(trifluoromethyl)benzyl)piperazine-1-carbonyl)-1H-pyrazol-3-yl)isobutyramide] | ≥ 75 | 0 to 25 | 0.1 to 1 | 1 to 10 |
| CS(=O)(=O)Nc1ccn(C(=O)N2CCC3(CCCN3Cc3ccc(Cl)cc3N3CCOCC3)CC2)n1 [Example 264, N-(1-(1-(4-chloro-2-morpholinobenzyl)-1,8-diazaspiro[4.5]decane-8-carbonyl)-1H-pyrazol-3-yl) methanesulfonamide] | 25 to 50 | 0 to 25 |  |  |
| CC(=O)Nc1ccn(C(=O)N2CCC3(CCCN3Cc3ccc4nc(C)oc4c3)CC2)n1 [Example 265, N-(1-(1-((2-methylbenzo[d]oxazol-6-yl)methyl)-1,8-diazaspiro[4.5]decane-8-carbonyl)-1H-pyrazol-3-yl)acetamide] | ≥ 75 | 0 to 25 | 0.1 to 1 | 1 to 10 |
| CS(=O)(=O)Nc1ccn(C(=O)N2CCN(Cc3ccc(Cl)c(C4CCCC4)c3)CC2)n1 [Example 272, N-(1-(4-(4-chloro-3-cyclopentylbenzyl)piperazine-1-carbonyl)-1H-pyrazol-3-yl) methanesulfonamide] | ≥ 75 | 0 to 25 |  |  |
| CS(=O)(=O)Nc1ccn(C(=O)N2CCN(Cc3cccc(C(F)(F)F)c3N3CCC(F)CC3)CC2)n1 [Example 273, N-(1-(4-(2-(4-fluoropiperidin-1-yl)-3-(trifluoromethyl)benzyl)piperazine-1-carbonyl)-1H-pyrazol-3-yl) methanesulfonamide] | ≥ 75 | 0 to 25 |  |  |

The remaining lines, values ahead:

| inhibition at 1 µM (MAGL) [%] | inhibition at 1 µM (FAAH) [%] | IC50 (MAGL) [µM] | IC50 (FAAH) [µM] | SMILES |
| --- | --- | --- | --- | --- |
| ≥ 75 | 0 to 25 |  |  | CC(=O)Nc1ccn(C(=O)N2CCN(Cc3ccc(C(F)(F)F)cc3N3CCC(C(N)=O)CC3)CC2)n1 [Example 274, 1-(2-((4-(3-acetamido-1H-pyrazole-1-carbonyl)piperazin-1-yl)methyl)-5-(trifluoromethyl)phenyl)piperidine-4-carboxamide] |
| ≥ 75 | 0 to 25 |  |  | CC(=O)Nc1ccn(C(=O)N2CCN(Cc3ccc(C(F)(F)F)cc3N3CCC(NC(C)=O)CC3)CC2)n1 [Example 275, N-(1-(2-((4-(3-acetamido-1H-pyrazole-1-carbonyl)piperazin-1-yl)methyl)-5-(trifluoromethyl)phenyl)piperidin-4-yl)acetamide] |
| ≥ 75 | 0 to 25 |  |  | CC(=O)Nc1ccn(C(=O)N2CCN(Cc3ccc(C(F)(F)F)cc3N3CCC(O)CC3)CC2)n1 [Example 276, N-(1-(4-(2-(4-hydroxypiperidin-1-yl)-4-(trifluoromethyl)benzyl)piperazine-1-carbonyl)-1H-pyrazol-3-yl)acetamide] |
| ≥ 75 | 0 to 25 |  |  | CC(=O)Nc1ccn(C(=O)N2CCN(Cc3ccc(C(F)(F)F)cc3N3CCN(CC(=O)O)CC3)CC2)n1 [Example 277, 2-(4-(2-((4-(3-acetamido-1H-pyrazole-1-carbonyl)piperazin-1-yl)methyl)-5-(trifluoromethyl)phenyl)piperazin-1-yl)acetic acid] |
| ≥ 75 | 0 to 25 |  |  | CS(=O)(=O)Nc1ccn(C(=O)N2CCN(Cc3ccc(C(F)(F)F)c(N4CCN5CCC[C@@H]5C4)c3)CC2)n1 [Example 278, (R)-N-(1-(4-(3-(hexahydropyrrolo[1,2-a]pyrazin-2(1H)-yl)-4-(trifluoromethyl)benzyl)piperazine-1-carbonyl)-1H-pyrazol-3-yl) methanesulfonamide] |
| ≥ 75 | 0 to 25 |  |  | CC(=O)NC1CCN(c2cc(CN3CCN(C(=O)n4ccc(NS(C)(=O)=O)n4)CC3)ccc2C(F)(F)F)CC1 [Example 279, N-(1-(5-((4-(3-(methylsulfonamido)-1H-pyrazole-1-carbonyl)piperazin-1-yl)methyl)-2-(trifluoromethyl)phenyl)piperidin-4-yl)acetamide] |
| ≥ 75 | 0 to 25 |  |  | CC(C)(O)C1CCN(c2cc(CN3CCN(C(=O)n4ccc(NS(C)(=O)=O)n4)CC3)ccc2C(F)(F)F)CC1 [Example 280, N-(1-(4-(3-(4-(2-hydroxypropan-2-yl)piperidin-1-yl)-4-(trifluoromethyl)benzyl)piperazine-1-carbonyl)-1H-pyrazol-3-yl) methanesulfonamide] |
| 0 to 25 | 0 to 25 |  |  | CS(=O)(=O)Nc1ccn(C(=O)N2CCN(Cc3ccc(C(F)(F)F)c(N4CCN(CC(=O)O)CC4)c3)CC2)n1 [Example 281, 2-(4-(5-((4-(3-(methylsulfonamido)-1H-pyrazole-1-carbonyl)piperazin-1-yl)methyl)-2-(trifluoromethyl)phenyl)piperazin-1-yl)acetic acid] |
| ≥ 75 | 0 to 25 |  |  | CS(=O)(=O)Nc1ccn(C(=O)N2CCN(Cc3ccc(Cl)c(N4CCN(S(C)(=O)=O)CC4)c3)CC2)n1 [Example 282, N-(1-(4-(4-chloro-3-(4-(methylsulfonyl)piperazin-1-yl)benzyl)piperazine-1-carbonyl)-1H-pyrazol-3-yl) methanesulfonamide] |
| ≥ 75 | 0 to 25 |  |  | CS(=O)(=O)Nc1ccn(C(=O)N2CCN(Cc3ccc(Cl)c(-c4cnccn4)c3)CC2)n1 [Example 283, N-(1-(4-(4-chloro-3-(pyrazin-2-yl)benzyl)piperazine-1-carbonyl)-1H-pyrazol-3-yl) methanesulfonamide] |
